#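 Method: 48-hour compound exposure of cells in 96-well plates, five concentrations, linear interpolation of endpoints. Definition used: TGI = concentration required for complete inhibition of growth.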
# Columns and labels:
# Assay in all cases: NCI tumour cell line growth inhibition, 48 h
# [1] = tested on: MCF7 breast
# [2] = tested on: LOX IMVI melanoma
# [3] = tested on: HCT-116 colon
# [4] = tested on: NCI-H460 lung
# [5] = tested on: PC-3 prostate
# [6] = tested on: SK-MEL-28 melanoma
# [7] = tested on: MOLT-4 leukemia
# [8] = tested on: TK-10 renal
# [9] = tested on: EKVX NSCLC
# [10] = tested on: OVCAR-3 ovarian
# [11] = tested on: OVCAR-8 ovarian
# [12] = tested on: SK-MEL-2 melanoma
# [13] = tested on: T-47D breast
# [14] = tested on: COLO 205 colon
# [15] = tested on: K-562 leukemia
# [16] = tested on: SNB-19 CNS
# [17] = tested on: MALME-3M melanoma
# [18] = tested on: SW-620 colon
# [19] = tested on: HOP-92 NSCLC
# [20] = tested on: BT-549 breast
# [21] = tested on: A549 NSCLC
# [22] = tested on: SR leukemia
# [23] = tested on: SF-295 CNS
# [24] = tested on: OVCAR-5 ovarian
# [25] = tested on: MDA-N
# [26] = tested on: NCI/ADR-RES ovarian
# [27] = tested on: SNB-75 CNS
# [28] = tested on: SF-539 CNS
# [29] = tested on: SK-MEL-5 melanoma
# [30] = tested on: HCT-15 colon
# [31] = tested on: UACC-257 melanoma
# [32] = tested on: RPMI-8226 leukemia
# [33] = tested on: SF-268 CNS
# [34] = tested on: M14 melanoma
# [35] = tested on: IGROV1 ovarian
# [36] = tested on: KM12 colon
# [37] = tested on: NCI-H226 lung
# [38] = tested on: UO-31 renal
# [39] = tested on: SN12C renal
# [40] = tested on: HL-60(TB) leukemia
# [41] = tested on: CCRF-CEM leukemia
# [42] = tested on: MDA-MB-435
# [43] = tested on: OVCAR-4 ovarian
# [44] = tested on: CAKI-1 renal
# [45] = tested on: U251 CNS
# [46] = tested on: HT29 colon
# [47] = tested on: UACC-62 melanoma
# [48] = tested on: HOP-62 NSCLC
# [49] = tested on: ACHN renal
# [50] = tested on: 786-0 renal
# [51] = tested on: SK-OV-3 ovarian
# [52] = tested on: NCI-H23 lung
# [53] = tested on: DU-145 prostate
# [54] = tested on: MDA-MB-231 breast
# [55] = tested on: HCC-2998 colon
# [56] = tested on: RXF 393 renal
compound,measurement,setting,value
C(=C\c1cccs1)/c1cccc(/C=C/c2cccs2)n1,TGI,[1],> 100 µM
same,TGI,[2],> 100 µM
same,TGI,[3],> 100 µM
same,TGI,[4],> 100 µM
same,TGI,[5],> 100 µM
same,TGI,[6],> 100 µM
same,TGI,[7],> 100 µM
same,TGI,[8],> 100 µM
same,TGI,[9],> 100 µM
same,TGI,[10],> 100 µM
same,TGI,[11],> 100 µM
same,TGI,[12],> 100 µM
same,TGI,[13],> 100 µM
same,TGI,[14],> 100 µM
same,TGI,[15],> 100 µM
same,TGI,[16],> 100 µM
same,TGI,[17],3.21 µM
same,TGI,[18],> 100 µM
same,TGI,[19],> 100 µM
same,TGI,[20],> 100 µM
same,TGI,[21],> 100 µM
same,TGI,[22],> 100 µM
same,TGI,[23],> 100 µM
same,TGI,[24],> 100 µM
same,TGI,[25],> 100 µM
same,TGI,[26],> 100 µM
same,TGI,[27],79.4 µM
same,TGI,[28],> 100 µM
same,TGI,[29],> 100 µM
same,TGI,[30],> 100 µM
same,TGI,[31],> 100 µM
same,TGI,[32],> 100 µM
same,TGI,[33],6.9 µM
same,TGI,[34],> 100 µM
same,TGI,[35],> 100 µM
same,TGI,[36],> 100 µM
same,TGI,[37],> 100 µM
same,TGI,[38],> 100 µM
same,TGI,[39],> 100 µM
same,TGI,[40],> 100 µM
same,TGI,[41],> 100 µM
same,TGI,[42],> 100 µM
same,TGI,[43],66.6 µM
same,TGI,[44],> 100 µM
same,TGI,[45],> 100 µM
same,TGI,[46],> 100 µM
same,TGI,[47],> 100 µM
same,TGI,[48],> 100 µM
same,TGI,[49],38.9 µM
same,TGI,[50],> 100 µM
same,TGI,[51],> 100 µM
same,TGI,[52],> 100 µM
same,TGI,[53],> 100 µM
same,TGI,[54],> 100 µM
same,TGI,[55],> 100 µM
same,TGI,[56],> 100 µM
